Test results: US6818621B2, “Osteopontin-derived chemotactic and inhibitory agents and uses therefor” (Children's Medical Center Corporation, priority 1999, dated 2004)
Marks after values point to notes of the source that are not given here. Each block holds one substance with its values, some of them ahead of it. Where no end group is shown, it is not given here.

Experiments:
MDA-MB-231 cells [1] = experiment: Apoptosis by TUNEL (In situ Cell Death Detection Kit); type: cell-based, human; details: 100 nM, 12 hours; for increase in apoptosis as compared to OPN: TUNEL
Method: (§1) One million MDA-MB-231 cells were incubated with 100 nM of the OPN, LVVDPK (SEQ ID NO:8), Ac-MLDP (SEQ ID NO:23) or Ac-HKDKMLDP (SEQ ID NO:24) in DME containing 10% FBS in a humidified atmosphere of 5% CO2 at […]. After 12 hours, Caspase 8 and the % of apoptotic cells were determined. Caspase was determined by a fluorescent assay using Chemicon's FLICE/Caspase-8 Fluorometric Protease Assay Kit as described by the manufacturers. Apoptosis was determined using TUNEL using the “In situ Cell Death Detection Kit” (Boehringer-Mannheim, Germany).

[2] = tested on: Peritoneal macrophages, fibroblasts or osteoblasts; experiment: Apoptosis of non-tumor cells treated with PepM; type: cell-based
Caspase 8 = experiment: FLICE/Caspase-8 Fluorometric Protease Assay; type: cell-based, human; details: 100 nM, 12 hours, MDA-MB-231 cells
Method: as §1

[3] = tested on: MDA-MB-231 cells (CD44+ human breast adenocarcinoma cells); experiment: Chemotactic chamber (Boyden) assay, migration through polycarbonate filters; type: cell-based; details: for MI buffer: cells migrating in response to peptide divided by cells migrating in response to buffer; for mean number of migrating cells per six random high powered fields: Table 2
Method: Each peak was then tested for mediation of chemotaxis or for its ability to inhibit OPN mediated chemotaxis using the chemotactic assay as follows (see e.g., Weber et al. (1996) Science 271:509-512). Briefly, uncoated polycarbonated filters (pore size […] ) were used to separate the upper and lower chambers of chemotactic wells. 1×10^3 MDA-MB-231 cells (CD44^+human breast adenocarcinoma cells) were added to the upper chamber and incubated in the presence or absence of the indicated 50 pmols peptide. After 4 hours, the filters were removed, fixed in methanol arid stained with hematoxylin and eosin. Cells which have responded to the peptide, migrate to various areas of the lower surface and can be counted microscopically. Each data point is reported as the mean number of migrating cells per random high power field.
Peptide 51 was identified as being chemotactic. The peptide was sequenced using a gas-phase sequenator and determined to have the sequence LVLDPK (SEQ ID NO:1). To confirm that chemotaxis was due to this peptide, a 16 amino acid peptide spanning the chemotactic sequence in OPN was synthesized and tested for its chemotactic properties. The resulting peptide, SP64 has the sequence KFHSHKDKLVLDPKSK (SEQ ID NO:2) and containing the chemotactic sequence from residues 9-14. 2×10^4 MDA-MB-231 cells were assayed for chemotactic response to the indicated peptides as described above. Each data point is reported as the mean number of migrating cells per six random high powered fields ± standard error of the mean. Each experiment was repeated four times.
To test the amino acid specificity for chemotactic response several substitutions were created in the chemotactic sequence and the new peptides tested for their ability to induce chemotaxis. Data are expressed as migratory index (cells migrating in response to peptide/cells migration in response to LVLDPK, SEQ ID NO:1).
(§2) To evaluate the potential of peptide analogues to inhibit OPN induced chemotaxis, 100 nmoles of peptide was added to the lower compartment and the response of these cells to OPN was determined as described. MI(buffer) was calculated by dividing the number of cells migrating in response to peptide by the number of cells migrating in response to buffer. MI(inhibitory) equals the number of cells migrating towards OPN in the presence of buffer divided by the number migrating towards OPN in the presence of peptide.

MDA-MB-231 cells [4] = experiment: Inhibition of OPN induced chemotaxis in the chemotactic chamber assay; type: cell-based, human; details: for MI inhibitory: Table 4, 100 nmoles of peptide, cells migrating towards OPN in presence of buffer divided by number migrating towards OPN in presence of peptide
Method: as §2

breast tumor cells = experiment: Nitric oxide production, nitrate in culture supernatants (Griess reagents); type: cell-based; details: 12 hours after incubation
Method: The production of nitric oxide (NO) by the breast tumor cells was assessed 12 hours after incubation in the presence of pepL by measuring the accumulation of nitrate in culture supernatants. Griess reagents were used as described by Hwang et al. (1993).

[5] = tested on: cells recruited into the peritoneum; experiment: In vivo chemotaxis after injection of peptide into the peritoneal cavity, lavage and flow cytometry; design: species or system C57 black mice; details: coinjected with the chemotactic agent
peritoneal exudate cells = experiment: In vivo cellular migration after intraperitoneal injection of osteopontin, peritoneal exudate flow cytometry; design: species or system Mice
Method: Mice were injected intraperitoneally with varying dosages of K7 osteosarcoma-derived osteopontin. All injection volumes were 200 μl. Injections of vehicle alone (PBS) served as negative controls and vehicle plus 20 μg lipopolysaccharide (LPS) injections served as positive controls for elicitation of peritoneal exudates.
Mice were sacrificed by CO2-asphyxiation at varying times following injection. Immediately after sacrifice, peritoneal exudate was recovered by intraperitoneal injection and recovery of 10 mL PBS. The lavage procedure was performed twice on each mouse. Following this, red blood cells were lysed by hypotonic lysis with ACK lysis buffer (0.15 M NH4Cl, 1.0 mM KHCO3, 0.1 mM Na2EDTA, pH 7.4) for 5 minutes at room temperature, and the preparation was washed in DMEM, 5% FBS. Cells were resuspended in DMEM, 5% FBS for fluorescent antibody staining.
Each sample of cells to be analyzed for specific surface markers was suspended in DMEM, 5% FBS at a concentration of 0.2 to 1 million cells in 50 μl. Fluorescence-labeled antibodies were added at 1 μg/1×10^6 cells, and incubated with the cells for 30 minutes at 4° C. Samples were washed twice with 200 μl of PBS following antibody staining and fixed with 500 μl of 2% paraformaldehyde in PBS. Peritoneal exudate cells were analyzed by dual-color flow cytometry for expression of CD44 (PE), CD 11 b (Mac-1, FITC, macrophage marker), B220 (FITC, B-cell marker), and CD3 (FITC, T-cell marker). All antibodies were purchased from PharMingen and flow cytometric analysis was done using a Coulter EPICS flow cytometer. Controls for non-specific binding and single color controls were included.
To further characterize the effects of osteopontin on in vivo cellular migration, a time course experiment was performed using an osteopontin dosage that elicited peak levels of infiltration. The total cellular response to osteopontin administration peaked sharply at 4 to 6 hours. This is likely to be due to a high rate of clearance from the peritoneal cavity.

[6] = tested on: cells recruited into the peritoneum; experiment: In vivo chemotaxis after injection of peptide into the peritoneal cavity, lavage and flow cytometry; design: species or system C57 black mice; details: 25 nmols i.p., 6 hours, normalized to PBS-injected mouse, average of 6 mice
Method: Since the peptide LVLDPK (SEQ ID NO:1) was chemotactic to tumor cells and macrophages in vitro, we tested whether the peptide was chemotactic in vivo. 25 nmols of the peptide were injected into the peritoneal cavity of C57 black mice. After six hours the cells recruited into the peritoneum were recovered by lavage and identified by flow cytometry. Titration of soluble peptides into the peritoneum induces a cellular infiltrate in a dose dependent manner. The induction ratio is the number of cells of a particular lineage recovered from the peritoneum of a peptide-injected mouse (e.g., 6 hours after injection) normalized for each experiment to the number of cells of the same lineage recovered from the peritoneum of a PBS-injected mouse. Cell numbers for PBS-injected mice ranged from […] to 646,000 cells total; 182,300 to 325,000 CD44^+ cells; 224,000 to 496,000 […] cells; 31,300 to 76,000 B220^+ cells; 18,100 to 21,100 CD3^+ cells), representing the induction of macrophages (Mac-1^+), B cells (B220^+), and T cells (CD3^+). Values represent an average of 6 mice.

macrophage = experiment: Inhibition of macrophage recruitment by osteopontin, C5a and fibronectin; details: C5a and by fibrorectin

- increase In Caspase 8 activity (Caspase 8): ~80%
Substance: Acetyl-HKDKMLDP (Ac-HKDKMLDP) [pepM]
- apoptosis (in words) (MDA-MB-231 cells [1]): activation of apoptosis
- increase in apoptosis as compared to OPN (MDA-MB-231 cells [1]): ~120%
- apoptosis of non-tumor cells [2]: did not undergo apoptosis
- MI buffer ([3]; Table 4): 0.8
- MI inhibitory (MDA-MB-231 cells [4]): 2

- Caspase 8 activity (in words) (Caspase 8): virtually undetectable
Substance: LVVDPK (OTHER INFORMATION: Description of Artificial Sequence:Synthetic Peptide) [pepA′]
- apoptosis (in words) (MDA-MB-231 cells [1]): virtually undetectable
- MI buffer ([3]; Table 4): 9
- MI ([3]; Table 4, migratory index): 1
- MI inhibitory (MDA-MB-231 cells [4]): 8

More lines, now with the values behind:

Substance: Acetyl-MLDP (Ac-MLDP) [pepL]
- NO production (breast tumor cells): increased NO production
- apoptosis (in words) (MDA-MB-231 cells [1]): activation of apoptosis
- increase in apoptosis as compared to OPN (MDA-MB-231 cells [1]): 80%
- increase In Caspase 8 activity (Caspase 8): ~65%
- effect on chemotactic response to OPN of LVLDPK in vivo [5]: totally abolished the chemotactic response
- MI buffer ([3]; Table 4): 1
- MI inhibitory (MDA-MB-231 cells [4]): 2

Substance: OPN: osteopontin protein; bone OPN in vitro, K7 osteosarcoma-derived osteopontin in Example 3
- mean number of migrating cells per six random high powered fields ([3]; labelled agent in lower chamber, Ab64 in upper chamber): 36 cells per six random high powered fields
- mean number of migrating cells per six random high powered fields ([3]; labelled agent in lower chamber, OPN in upper chamber): 16 cells per six random high powered fields
- mean number of migrating cells per six random high powered fields ([3]; labelled agent in lower chamber, PBS in upper chamber, 2×10^4 cells): 214 cells per six random high powered fields
- mean number of migrating cells per six random high powered fields ([3]; labelled agent in lower chamber, SP64 in upper chamber): 187 cells per six random high powered fields
- mean number of migrating cells per six random high powered fields ([3]; labelled agent in lower chamber, pep 51 in upper chamber): 44 cells per six random high powered fields
- mean number of migrating cells per six random high powered fields ([3]; labelled agent in upper chamber, PBS in lower chamber): 23 cells per six random high powered fields
- chemotactic response of MDA-MB231 (in words) ([3]; p<0.01, 200 ng of bone OPN): stimulated the chemotactic response
- number of CD3+ and B220+ cells (peritoneal exudate cells; 6 hours after injection): only marginally elevated
- number of Mac-1+ cells in the infiltrate (peritoneal exudate cells; 6 hours after injection, over basal levels): increased fivefold over basal levels
- peritoneal cells recovered (peritoneal exudate cells; OPN alone): 1.16 million cells
- number of CD44+ Mac1+ cells (peritoneal exudate cells; at a dose around 7 μg): nearly sixfold reduction
- dose of peak response of the cellular infiltrate (peritoneal exudate cells; intraperitoneal, 6 hours after injection): around 13 μg
- cellular infiltrate (in words) (peritoneal exudate cells; titration into the peritoneum, 6 hours after injection): dose dependent increase
- induction ratio, Total [6]: 11.3
- induction ratio, Total CD44 [6]: 9.6*
- induction ratio, B-lymphocytes ([6]; B220+): 1.2
- induction ratio, T-lymphocytes ([6]; CD3+): 1
- induction ratio, Monocytes ([6]; Mac-1+): 10.4*

Substance: VLEP (OTHER INFORMATION: Description of Artificial Sequence:Synthetic Peptide) [pepJ′]
- Migratory Index ([3]; Table 3, cells migrating in response to peptide/cells migration in response to LVLDPK): 0.1
- inhibition of chemotaxis by peptide (in words) (MDA-MB-231 cells [4]; migratory index against peptide 51): inhibitory for chemotaxis
- inhibition of macrophage recruitment (macrophage): inhibits macrophage recruitment
